Experimental data from patent publication US6737383B1, “Herbicidal oxadiazolidines” (priority 1999, dated 2004).

Key:
surinam grass = assay: Test B pre/postemergence surinam grass; type: in vivo, Brachiaria decumbens; settings: for Plant response rating, B. signalgrass: scale of 0 to 10 where 0 is no effect and 10 is complete control
Outline: (§1)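 Herbicidal effect was estimated by eye on a ten-point control scale after plants spent twelve to sixteen days in a greenhouse following soil or foliar treatment. Foliar sprays targeted plants at one to four leaves; all doses were formulated in a non-phytotoxic solvent with surfactant.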

blackgrass = assay: Test B pre/postemergence blackgrass; type: in vivo, Alopecurus myosuroides; settings: for Plant response rating, Blackgrass: scale of 0 to 10 where 0 is no effect and 10 is complete control
Outline: as §1

wheat = assay: Test B pre/postemergence wheat; type: in vivo, Triticum aestivum; settings: for Plant response rating, Wheat: scale of 0 to 10 where 0 is no effect and 10 is complete control
Outline: as §1

velvetleaf = assay: Test B pre/postemergence velvetleaf; type: in vivo, Abutilon theophrasti; settings: for Plant response rating, Velvetleaf: scale of 0 to 10 where 0 is no effect and 10 is complete control
Outline: as §1

wild oat = assay: Test B pre/postemergence wild oat; type: in vivo, Avena fatua; settings: for Plant response rating, Wild oats: scale of 0 to 10 where 0 is no effect and 10 is complete control
Outline: as §1

pigweed = assay: Test B pre/postemergence pigweed; type: in vivo, Amaranthus retroflexus; settings: for Plant response rating, Redroot pigweed: scale of 0 to 10 where 0 is no effect and 10 is complete control
Outline: as §1

morningglory = assay: Test B pre/postemergence morningglory; type: in vivo, Ipomoea hederacea; settings: for Plant response rating, Morningglory: scale of 0 to 10 where 0 is no effect and 10 is complete control
Outline: as §1

rape = assay: Test B pre/postemergence rape; type: in vivo, Brassica napus; settings: for Plant response rating, Rape: scale of 0 to 10 where 0 is no effect and 10 is complete control
Outline: as §1

bedstraw = assay: Test B pre/postemergence bedstraw; type: in vivo, Galium aparine; settings: Postemergence, Rate 31 g/ha; visual rating, scale 0 to 10 (0 no effect, 10 complete control)
Outline: as §1

soybean = assay: Test B pre/postemergence soybean; type: in vivo, Glycine max; settings: for Plant response rating, Soybean: scale of 0 to 10 where 0 is no effect and 10 is complete control
Outline: as §1

cocklebur = assay: Test B pre/postemergence cocklebur; type: in vivo, Xanthium strumarium; settings: for Plant response rating, Cocklebur: scale of 0 to 10 where 0 is no effect and 10 is complete control
Outline: as §1

rice = assay: Test B flood test rice; type: in vivo, Oryza sativa
Outline: (§2)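 Read-out is a visual response score from 0 (no effect) to 10 (complete control), assigned by comparison with untreated controls. Treatment was applied at the 2-leaf stage, and plants stayed in the greenhouse for twelve to sixteen days before scoring.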

corn = assay: Test B pre/postemergence corn; type: in vivo, Zea mays; settings: for Plant response rating, Corn: scale of 0 to 10 where 0 is no effect and 10 is complete control
Outline: as §1

sugar beet = assay: Test B pre/postemergence sugar beet; type: in vivo, Beta vulgaris; settings: for Plant response rating, Sugarbeets: scale of 0 to 10 where 0 is no effect and 10 is complete control
Outline: as §1

smallflower flatsedge = assay: Test B flood test smallflower flatsedge; type: in vivo, Cyperus difformis
Outline: as §2

giant foxtail = assay: Test B pre/postemergence giant foxtail; type: in vivo, Setaria faberii; settings: for Plant response rating, Giant foxtail: scale of 0 to 10 where 0 is no effect and 10 is complete control
Outline: as §1

[1] = Postemergence, Rate 31 g/ha, visual rating, scale 0 to 10 (0 no effect, 10 complete control)
[2] = Preemergence, Rate 31 g/ha, visual rating, scale 0 to 10 (0 no effect, 10 complete control)
[3] = Preemergence, Rate 250 g/ha, scale 0 to 10, 0 is no effect, 10 is complete control
[4] = Rate 62 g/ha, Postemergence, scale 0 to 10 (0 no effect, 10 complete control)
[5] = Rate 125 g/ha, Postemergence, scale 0 to 10, 0 is no effect, 10 is complete control
[6] = Postemergence, Rate 250 g/ha, scale 0 to 10
[7] = Rate 31 g/ha, Pre-emergence section (flood test species), scale 0 to 10
[8] = Rate 62 g/ha, flood test species, Pre-emergence, visual evaluation after twelve to sixteen days
[9] = Rate 125 g/ha, under heading Pre-emergence, flood test species, visual evaluation after twelve to sixteen days
[10] = Rate 250 g/ha, Pre-emergence (flood test species), scale 0 to 10, 0 is no effect, 10 is complete control

In the case of CC(C)N(C(=O)n1oc(=O)n(CC2=NOCCC2)c1=O)c1ccc(Cl)cc1 [Compound 450], the “B. signalgrass plant response rating” value (surinam grass; [1]) is reported as 0, the “B. signalgrass plant response rating” value (surinam grass; Postemergence, Rate 250 g/ha, scale 0 to 10, 0 no effect, 10 complete control) is reported as 0 and the “B. signalgrass plant response rating” value (surinam grass; [2]) is reported as 0. The “Plant response rating, B. signalgrass” value (surinam grass; Preemergence, Rate 62 g/ha) was 0, the “Plant response rating, B. signalgrass” value (surinam grass; Preemergence, Rate 125 g/ha) was 1 and the “B. signalgrass plant response rating” value (surinam grass; [3]) was 3. For the same molecule, the “B. signalgrass plant response rating” value (surinam grass; [4]) was 0, the “B. signalgrass plant response rating” value (surinam grass; [5]) was 0 and the “Blackgrass plant response rating” value (blackgrass; [1]) was 0. The “Blackgrass plant response rating” value (blackgrass; [6]) was 2, the “Blackgrass plant response rating” value (blackgrass; [2]) was 0 and the “Plant response rating, Blackgrass” value (blackgrass; Preemergence, Rate 62 g/ha) was 0. For the same molecule, the “Plant response rating, Blackgrass” value (blackgrass; Preemergence, Rate 125 g/ha) was 2, the “Blackgrass plant response rating” value (blackgrass; [3]) was 4 and the “Blackgrass plant response rating” value (blackgrass; [4]) was 0. For the same molecule, the “Blackgrass plant response rating” value (blackgrass; [5]) was 0, the “Wheat plant response rating” value (wheat; [1]) was 0 and the “Wheat plant response rating” value (wheat; [6]) was 0. For the same molecule, the “Plant response rating, Wheat” value (wheat; Preemergence, Rate 62 g/ha) was 0, the “Plant response rating, Wheat” value (wheat; Preemergence, Rate 125 g/ha) was 0 and the “Wheat plant response rating” value (wheat; [3]) was 0. The “Wheat plant response rating” value (wheat; [4]) was 0, the “Wheat plant response rating” value (wheat; [5]) was 0 and the “Velvetleaf plant response rating” value (velvetleaf; [1]) was 0. For the same molecule, the “Velvetleaf plant response rating” value (velvetleaf; [6]) was 2, the “Plant response rating, Velvetleaf” value (velvetleaf; Preemergence, Rate 62 g/ha) was 0 and the “Plant response rating, Velvetleaf” value (velvetleaf; Preemergence, Rate 125 g/ha) was 0. For the same molecule, the “Velvetleaf plant response rating” value (velvetleaf; [3]) was 0, the “Velvetleaf plant response rating” value (velvetleaf; [4]) was 0 and the “Velvetleaf plant response rating” value (velvetleaf; [5]) was “Velvetleaf 0”. The “Wild oats plant response rating” value (wild oat; [1]) was 0, the “Wild oats plant response rating” value (wild oat; [6]) was 0 and the “Plant response rating, Wild oats” value (wild oat; Preemergence, Rate 62 g/ha) was 0. For the same molecule, the “Plant response rating, Wild oats” value (wild oat; Preemergence, Rate 125 g/ha) was 0, the “Wild oats plant response rating” value (wild oat; [3]) was 0 and the “Wild oats plant response rating” value (wild oat; [4]) was 0. The “Wild oats plant response rating” value (wild oat; [5]) was 0, the “Redroot pigweed plant response rating” value (pigweed; [1]) was 0 and the “Redroot pigweed plant response rating” value (pigweed; [6]) was 0. The “Plant response rating, Redroot pigweed” value (pigweed; Preemergence, Rate 62 g/ha) was 0, the “Plant response rating, Redroot pigweed” value (pigweed; Preemergence, Rate 125 g/ha) was 4 and the “Redroot pigweed plant response rating” value (pigweed; [3]) was 7. For the same molecule, the “Redroot pigweed plant response rating” value (pigweed; [4]) was 0, the “Redroot pigweed plant response rating” value (pigweed; [5]) was 0 and the “Morningglory plant response rating” value (morningglory; [1]) was 0. The “Morningglory plant response rating” value (morningglory; [6]) was 1, the “Plant response rating, Morningglory” value (morningglory; Preemergence, Rate 62 g/ha) was 0 and the “Plant response rating, Morningglory” value (morningglory; Preemergence, Rate 125 g/ha) was 0. The “Morningglory plant response rating” value (morningglory; [3]) was 0, the “Morningglory plant response rating” value (morningglory; [4]) was 0 and the “Morningglory plant response rating” value (morningglory; [5]) was 0. For the same molecule, the “Rape plant response rating” value (rape; [1]) was 0, the “Rape plant response rating” value (rape; [6]) was 0 and the “Plant response rating, Rape” value (rape; Preemergence, Rate 62 g/ha) was 0. The “Plant response rating, Rape” value (rape; Preemergence, Rate 125 g/ha) was 0, the “Rape plant response rating” value (rape; [3]) was 0 and the “Rape plant response rating” value (rape; [4]) was 0. For the same molecule, the “Rape plant response rating” value (rape; [5]) was 0, the “Bedstraw plant response rating” value (bedstraw) was 0 and the “Soybean plant response rating” value (soybean; [1]) was 0. The “Soybean plant response rating” value (soybean; [6]) was 1, the “Plant response rating, Soybean” value (soybean; Preemergence, Rate 62 g/ha) was 0 and the “Plant response rating, Soybean” value (soybean; Preemergence, Rate 125 g/ha) was 0. The “Soybean plant response rating” value (soybean; [3]) was 3, the “Soybean plant response rating” value (soybean; [4]) was 1 and the “Soybean plant response rating” value (soybean; [5]) was 1. The “Cocklebur plant response rating” value (cocklebur; [1]) was 0, the “Cocklebur plant response rating” value (cocklebur; [6]) was 0 and the “Cocklebur plant response rating” value (cocklebur; [2]) was 0. The “Plant response rating, Cocklebur” value (cocklebur; Preemergence, Rate 62 g/ha) was 0, the “Plant response rating, Cocklebur” value (cocklebur; Preemergence, Rate 125 g/ha) was 0 and the “Cocklebur plant response rating” value (cocklebur; [3]) was 0. For the same molecule, the “Cocklebur plant response rating” value (cocklebur; [4]) was 0, the “Cocklebur plant response rating” value (cocklebur; [5]) was 0 and the “Rice plant response rating” value (rice; [7]) was 0. The “Plant response rating, Rice (0 to 10 scale, 0 is no effect, 10 is complete control)” value (rice; [8]) was 0, the “Rice plant response rating (0 to 10 scale, 0 is no effect, 10 is complete control)” value (rice; [9]) was 0 and the “Rice plant response rating” value (rice; [10]) was 0. For the same molecule, the “Corn plant response rating” value (corn; [1]) was 0, the “Corn plant response rating” value (corn; [6]) was 0 and the “Corn plant response rating” value (corn; [2]) was 0. The “Plant response rating, Corn” value (corn; Preemergence, Rate 62 g/ha) was 0, the “Plant response rating, Corn” value (corn; Preemergence, Rate 125 g/ha) was 0 and the “Corn plant response rating” value (corn; [3]) was 0. For the same molecule, the “Corn plant response rating” value (corn; [4]) was 0, the “Corn plant response rating” value (corn; [5]) was 0 and the “Sugarbeets plant response rating” value (sugar beet; [1]) was 0. For the same molecule, the “Sugarbeets plant response rating” value (sugar beet; [6]) was 0, the “Plant response rating, Sugarbeets” value (sugar beet; Preemergence, Rate 62 g/ha) was 0 and the “Plant response rating, Sugarbeets” value (sugar beet; Preemergence, Rate 125 g/ha) was 0. For the same molecule, the “Sugarbeets plant response rating” value (sugar beet; [3]) was 0, the “Sugarbeets plant response rating” value (sugar beet; [4]) was 0 and the “Sugarbeets plant response rating” value (sugar beet; [5]) was 0. For the same molecule, the “S. Flatsedge plant response rating” value (smallflower flatsedge; [7]) was 0, the “Plant response rating, S. Flatsedge (0 to 10 scale, 0 is no effect, 10 is complete control)” value (smallflower flatsedge; [8]) was 0 and the “S. Flatsedge plant response rating (0 to 10 scale, 0 is no effect, 10 is complete control)” value (smallflower flatsedge; [9]) was 0. The “S. Flatsedge plant response rating” value (smallflower flatsedge; [10]) was 0, the “Giant foxtail plant response rating” value (giant foxtail; [1]) was 0 and the “Giant foxtail plant response rating” value (giant foxtail; [6]) was 7. For the same molecule, the “Giant foxtail plant response rating” value (giant foxtail; [2]) was 0, the “Plant response rating, Giant foxtail” value (giant foxtail; Preemergence, Rate 62 g/ha) was 2 and the “Plant response rating, Giant foxtail” value (giant foxtail; Preemergence, Rate 125 g/ha) was 8. The “Giant foxtail plant response rating” value (giant foxtail; [3]) was 9, the “Giant foxtail plant response rating” value (giant foxtail; [4]) was 2 and the “Giant foxtail plant response rating” value (giant foxtail; [5]) was 5.
